Laboratory results from patent US6737383B1, “Herbicidal oxadiazolidines” (priority 1999, dated 2004).

Tests used:
[1] = test system: bedstraw; assay: Test B pre/postemergence bedstraw; format: in vivo, Galium aparine
Outline: (§1)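 Response is a visual 0-to-10 score relative to untreated plants, where 0 means no effect and 10 means complete control, taken twelve to sixteen days after application. Treatments went onto soil at planting and onto foliage of 1- to 4-leaf plants, using a surfactant-containing non-phytotoxic solvent.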

[2] = test system: blackgrass; assay: Test B pre/postemergence blackgrass; format: in vivo, Alopecurus myosuroides
Outline: as §1

[3] = test system: surinam grass; assay: Test B pre/postemergence surinam grass; format: in vivo, Brachiaria decumbens
Outline: as §1

[4] = test system: cocklebur; assay: Test B pre/postemergence cocklebur; format: in vivo, Xanthium strumarium
Outline: as §1

[5] = test system: corn; assay: Test B pre/postemergence corn; format: in vivo, Zea mays
Outline: as §1

[6] = test system: morningglory; assay: Test B pre/postemergence morningglory; format: in vivo, Ipomoea hederacea
Outline: as §1

[7] = test system: pigweed; assay: Test B pre/postemergence pigweed; format: in vivo, Amaranthus retroflexus
Outline: as §1

[8] = test system: rape; assay: Test B pre/postemergence rape; format: in vivo, Brassica napus
Outline: as §1

[9] = test system: soybean; assay: Test B pre/postemergence soybean; format: in vivo, Glycine max
Outline: as §1

[10] = test system: sugar beet; assay: Test B pre/postemergence sugar beet; format: in vivo, Beta vulgaris
Outline: as §1

[11] = test system: velvetleaf; assay: Test B pre/postemergence velvetleaf; format: in vivo, Abutilon theophrasti
Outline: as §1

[12] = test system: wild oat; assay: Test B pre/postemergence wild oat; format: in vivo, Avena fatua
Outline: as §1

[13] = test system: purple nutsedge; assay: Test B pre/postemergence purple nutsedge; format: in vivo, Cyperus rotundus; details: Postemergence
Outline: as §1

[14] = test system: rice; assay: Test B flood test rice; format: in vivo, Oryza sativa
Outline: (§2)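 Read-out is a visual response score from 0 (no effect) to 10 (complete control), assigned by comparison with untreated controls. Treatment was applied at the 2-leaf stage, and plants stayed in the greenhouse for twelve to sixteen days before scoring.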

[15] = test system: smallflower flatsedge; assay: Test B flood test smallflower flatsedge; format: in vivo, Cyperus difformis
Outline: as §2

[16] = test system: bamyardgrass; assay: Test B flood test barnyardgrass; format: in vivo, Echinochloa crus-galli
Outline: as §2

[17] = Preemergence, Rate 62 g/ha, scale of 0 to 10 where 0 is no effect and 10 is complete control
[18] = Preemergence, Rate 125 g/ha, 0 is no effect, 10 is complete control
[19] = Preemergence, Rate 250 g/ha, scale 0 to 10, 0 is no effect, 10 is complete control
[20] = Preemergence, Rate 500 g/ha, scale of 0 to 10 where 0 is no effect and 10 is complete control
[21] = Rate 62 g/ha, Postemergence, scale of 0 to 10 where 0 is no effect and 10 is complete control
[22] = Rate 125 g/ha, Postemergence, scale 0 to 10
[23] = Rate 500 g/ha, Postemergence, scale 0 to 10
[24] = Rate 62 g/ha, headed Pre-emergence (flood test species), scale 0 to 10 (0 no effect, 10 complete control)
[25] = Rate 125 g/ha, Pre-emergence, flood test species, scale 0 to 10 where 0 is no effect and 10 is complete control
[26] = Rate 250 g/ha, Pre-emergence, flood-test species, scale 0 to 10, 0 is no effect, 10 is complete control
[27] = Rate 500 g/ha, headed Pre-emergence (flood test species), scale 0 to 10 (0 no effect, 10 complete control)

Cc1ccccc1-n1c(=O)on(C(=O)N(c2ccc(Cl)cc2F)C(C)C)c1=O [Compound 195]
Bedstraw plant response rating [1, 17]: 0
Bedstraw plant response rating (0 to 10 scale) [1, 18]: 0
Bedstraw plant response rating [1, 19]: 0
Plant response rating, Bedstraw [1, 20]: 2
Bedstraw plant response rating [1, 21]: 2
Bedstraw plant response rating [1, 22]: 2
Bedstraw plant response rating [1, 23]: 7
Blackgrass plant response rating [2, 17]: 0
Blackgrass plant response rating (0 to 10 scale) [2, 18]: 1
Blackgrass plant response rating [2, 19]: 3
Plant response rating, Blackgrass [2, 20]: 6
Blackgrass plant response rating [2, 21]: 0
Blackgrass plant response rating [2, 22]: 3
Plant response rating (0 to 10; 0 is no effect, 10 is complete control), Blackgrass ([2]; Rate 250 g/ha, Postemergence): 5
Blackgrass plant response rating [2, 23]: 6
B. signalgrass plant response rating [3, 17]: 0
B. signalgrass plant response rating (0 to 10 scale) [3, 18]: 0
B. signalgrass plant response rating [3, 19]: 1
Plant response rating, B. signalgrass [3, 20]: 6
B. signalgrass plant response rating [3, 21]: 0
B. signalgrass plant response rating ([3]; Rate 125 g/ha, Postemergence, scale 0 (no effect) to 10 (complete control)): 0
Plant response rating, B. signalgrass ([3]; Rate 250 g/ha, Postemergence, scale 0 to 10, 0 is no effect, 10 is complete control): 0
B. signalgrass plant response rating ([3]; Rate 500 g/ha, Postemergence, scale 0 to 10, 0 no effect, 10 complete control): 1
Cocklebur plant response rating [4, 17]: 0
Cocklebur plant response rating (0 to 10 scale) [4, 18]: 0
Cocklebur plant response rating [4, 19]: 0
Plant response rating, Cocklebur [4, 20]: 0
Cocklebur plant response rating [4, 21]: 0
Cocklebur plant response rating [4, 22]: 2
Plant response rating (0 to 10; 0 is no effect, 10 is complete control), Cocklebur ([4]; Rate 250 g/ha, Postemergence): 2
Cocklebur plant response rating [4, 23]: 2
Corn plant response rating [5, 17]: 0
Corn plant response rating (0 to 10 scale) [5, 18]: 0
Corn plant response rating [5, 19]: 0
Plant response rating, Corn [5, 20]: 0
Corn plant response rating [5, 21]: 0
Corn plant response rating [5, 22]: 0
Plant response rating (0 to 10; 0 is no effect, 10 is complete control), Corn ([5]; Rate 250 g/ha, Postemergence): 0
Corn plant response rating [5, 23]: 0
Morningglory plant response rating [6, 17]: 0
Morningglory plant response rating (0 to 10 scale) [6, 18]: 0
Morningglory plant response rating [6, 19]: 0
Plant response rating, Morningglory [6, 20]: 0
Morningglory plant response rating [6, 21]: 0
Morningglory plant response rating [6, 22]: 0
Plant response rating (0 to 10; 0 is no effect, 10 is complete control), Morningglory ([6]; Rate 250 g/ha, Postemergence): 1
Morningglory plant response rating [6, 23]: 3
Redroot pigweed plant response rating [7, 17]: 0
Redroot pigweed plant response rating (0 to 10 scale) [7, 18]: 0
Redroot pigweed plant response rating [7, 19]: 0
Plant response rating, Redroot pigweed [7, 20]: 0
Redroot pigweed plant response rating [7, 21]: 0
Redroot pigweed plant response rating [7, 22]: 0
Plant response rating (0 to 10; 0 is no effect, 10 is complete control), Redroot pigweed ([7]; Rate 250 g/ha, Postemergence): 2
Redroot pigweed plant response rating [7, 23]: 4
Rape plant response rating [8, 17]: 0
Rape plant response rating (0 to 10 scale) [8, 18]: 0
Rape plant response rating [8, 19]: 0
Plant response rating, Rape [8, 20]: 0
Rape plant response rating [8, 21]: 0
Rape plant response rating [8, 22]: 0
Plant response rating (0 to 10; 0 is no effect, 10 is complete control), Rape ([8]; Rate 250 g/ha, Postemergence): 0
Rape plant response rating [8, 23]: 0
Soybean plant response rating [9, 17]: 0
Soybean plant response rating (0 to 10 scale) [9, 18]: 0
Soybean plant response rating [9, 19]: 0
Plant response rating, Soybean [9, 20]: 0
Soybean plant response rating [9, 21]: 2
Soybean plant response rating [9, 22]: 3
Plant response rating (0 to 10; 0 is no effect, 10 is complete control), Soybean ([9]; Rate 250 g/ha, Postemergence): 4
Soybean plant response rating [9, 23]: 5
Sugarbeets plant response rating [10, 17]: 0
Sugarbeets plant response rating (0 to 10 scale) [10, 18]: 0
Sugarbeets plant response rating [10, 19]: 0
Plant response rating, Sugarbeets [10, 20]: 2
Sugarbeets plant response rating [10, 21]: 0
Sugarbeets plant response rating [10, 22]: 0
Plant response rating (0 to 10; 0 is no effect, 10 is complete control), Sugarbeets ([10]; Rate 250 g/ha, Postemergence): 0
Sugarbeets plant response rating [10, 23]: 2
Velvetleaf plant response rating [11, 17]: 0
Velvetleaf plant response rating [11, 19]: 0
Plant response rating, Velvetleaf [11, 20]: 0
Velvetleaf plant response rating [11, 21]: 0
Velvetleaf plant response rating [11, 22]: 0
Plant response rating (0 to 10; 0 is no effect, 10 is complete control), Velvetleaf ([11]; Rate 250 g/ha, Postemergence): 2
Wild oats plant response rating [12, 17]: 0
Wild oats plant response rating [12, 19]: 0
Plant response rating, Wild oats [12, 20]: 4
Wild oats plant response rating [12, 21]: 0
Wild oats plant response rating [12, 22]: 0
Plant response rating (0 to 10; 0 is no effect, 10 is complete control), Wild oats ([12]; Rate 250 g/ha, Postemergence): 0
Nutsedge plant response rating ([13]; Rate 62 g/ha, scale of 0 to 10 where 0 is no effect and 10 is complete control): 0
Nutsedge plant response rating ([13]; Rate 125 g/ha, scale 0 to 10): 0
Plant response rating (0 to 10; 0 is no effect, 10 is complete control), Nutsedge ([13]; Rate 250 g/ha): 0
Nutsedge plant response rating ([13]; Rate 500 g/ha, scale 0 to 10): 0
Rice plant response rating [14, 24]: 0
Rice plant response rating [14, 25]: 0
Rice plant response rating [14, 26]: 0
Plant response rating, Rice [14, 27]: 0
S. Flatsedge plant response rating [15, 24]: 0
S. Flatsedge plant response rating [15, 25]: 0
S. Flatsedge plant response rating [15, 26]: 0
S. Flatsedge plant response rating ([15]; Rate 500 g/ha, Pre-emergence, flood test species, scale 0 to 10 (0 no effect, 10 complete control)): 0
Barnyardgrass plant response rating [16, 24]: 0
Barnyardgrass plant response rating [16, 25]: 0
Barnyardgrass plant response rating [16, 26]: 0
Plant response rating, Barnyardgrass [16, 27]: 0
